Earlier results on one compound are cited in patent US6503482B1, “Non-chlorofluorocarbon aerosol formulations” (Schering Corporation, priority 1993, dated 2003).

The conditions of this data set: absolute pressure.

Where two headings read alike, the source gives them in different places.

As to `FCC(F)(F)F` [HFC 134a, 1,1,1,2 tetrafluoroethane], the vapor pressure (same value in psia) is reported as 84.7 psia and the vapor pressure (stated too high for use in metered dose inhalators) is 5.84×10^5 newton/meter^2 absolute.
